The METLIN SMRT retention time set (Domingo-Almenara et al. 2019)

Assay: gradient 5% acetonitrile 3 min, to 50% in 2 min, to 85% in 15 min, held 3 min, 100 µL/min
Details: column: Zorbax Extend-C18 2.1 x 50 mm; eluents: water / acetonitrile, 0.1% formic acid
How it was run: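 The mobile phases were water and acetonitrile, each with 0.1% formic acid, pumped at 100 μL/min through a Zorbax Extend-C18 column (2.1 × 50 mm, 1.8 μm). Pure standards were injected as mixtures of ~100 molecules and detected by a quadrupole time-of-flight mass spectrometer in positive and negative ionization mode. Retention time came from computationally picked adduct peaks, each inspected by hand.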

Row | SMILES | RP-LC retention time [s]
1 | O=C(c1cn2c(n1)CCCC2)N(Cc1ccccc1)Cc1ccco1 | 668
2 | CSc1cccc(NC(=O)c2cnc(-c3ccc(F)cc3)nc2-c2ccncc2)c1 | 973
3 | COc1ccccc1-n1cc(-c2ccccc2)c2c(NCCN(C)C)ncnc21 | 695
4 | CCNC(=O)N1CCc2c([nH]c3ccc(C)cc23)C12C(=O)N(C)c1ccccc12 (stereo not given) | 798
5 | Cc1ccc2nc(NC3=NCN(Cc4cccnc4)CN3)nc(C)c2c1 | 587
6 | O=C(Nc1cccc(C(F)(F)F)c1)c1cnc(-c2ccccc2)nc1-c1ccncc1 | 859
7 | CNC(=O)C1CCCN(c2nc3ncn(CC(=O)Nc4cc(F)cc(F)c4)c(=O)c3s2)C1 (stereo not given) | 681
8 | Cn1cccc1C(=O)C(=O)NCc1ccc(Cl)cc1 | 906
9 | Cc1c(S(=O)(=O)NCc2ccc3c(c2)CCN3C(=O)C(C)C)cnn1C(F)F | 801
10 | Cc1ccc(Nc2c(-c3ccc(N(C)C)cc3)nc3ncccn23)cc1 | 742
11 | Cc1cc(C)cc(C(=O)N2CCCC(C(=O)NC3CC3)C2)c1 (stereo not given) | 714
12 | O=C(Cn1c(=O)c2cc(-c3ccco3)nn2c2ncccc21)Nc1ccc(F)c(F)c1 | 843
13 | CCOc1ccccc1NC(=O)Cn1c(-c2ccccc2)nc(CC)cc1=O | 1320
14 | c1ccc(C2CN3CCSC3=N2)cc1 (stereo not given) | 618
15 | CCOc1cc(CNc2ccc3[nH]c(=O)[nH]c3c2)cc(Br)c1OCC | 717
16 | O=C1CCCN1c1ccc(Cn2cc(-c3nc(-c4cccc(F)c4)no3)ccc2=O)cc1 | 608
17 | O=C(NCc1ccc(F)c(Cl)c1)C1CCN(c2ccc(SCc3ccccc3)nn2)CC1 | 839
18 | CCc1nc2ccc(-c3noc(-c4ccsc4)n3)cc2n1CC | 698
19 | CN1C(=O)C2(CCN(C(=O)Cc3ccc(Cl)cc3)C2)c2ccccc21 (stereo not given) | 872
20 | CCC(C)C(NC(=O)c1cc(C)cc(C)c1)C(=O)Nc1nc2ccccc2[nH]1 (stereo not given) | 799
21 | CNC(=O)c1cc(N2CCOCC2)nc2ccc(F)cc12 | 590
22 | CCn1c(=O)c(=O)n(CC(=O)NCc2ccc(C)o2)c2cccnc21 | 688
23 | CCCCNc1nc(-c2ccccc2F)nc2ccccc12 | 730
24 | Cc1ccc(NC(=O)c2nc(C(C)C)oc2C)cc1F | 1140

Row | SMILES | RP-LC retention time [s]
25 | Cc1noc(C)c1CN1CCC(NC(=O)c2cc(Cl)ccc2F)C1 (stereo not given) | 570
26 | COC[C@@H]1CN(c2ncccn2)C[C@H]1C(=O)N(C)Cc1ccco1 | 619
27 | Cc1ccc(-c2nc3ccccc3[nH]2)cc1NC(=O)CC(C)C | 656
28 | Cc1sc(-c2nnc(C3CC3)o2)cc1NC(=O)Cc1ccc(F)cc1 | 956
29 | CCOC(=O)c1c(C)[nH]c(C)c1S(=O)(=O)N1CCC(C(=O)Nc2ccc(C)c(N(C)C)c2)CC1 | 616
30 | COc1cccc2cc(C(=O)Nc3cc(C)nn3-c3ccccc3)oc12 | 832
31 | O=C(CN1CC=C(c2cnn(-c3ccccc3)c2)CC1)NC1CCCCCC1 | 702
32 | Cc1c(S(=O)(=O)CCNC(=O)Nc2ccc3c(c2)OCO3)c2ccccc2n1C | 729
33 | CC(C)OC(=O)COC(=O)c1cn(-c2ccc(F)cc2)c(=O)c2ccccc12 | 1090
34 | Cc1ccc(C)c(NC(=O)Nc2ccc3nncn3c2)c1 | 747
35 | O=C(Nc1cccc(N2CC(C(=O)Nc3ccc(C(F)(F)F)cc3)CC2=O)c1)C1CCC1 (stereo not given) | 880
36 | Cc1ccc(-n2ccnc2SCc2nc(-c3cccc(Br)c3)no2)cc1 | 1080
37 | CCOc1ccccc1NS(=O)(=O)c1cc(-c2nc(C(C)(C)C)cs2)cs1 | 1310
38 | COc1ccccc1Cc1nc(-c2cn(-c3cccc(F)c3)nn2)no1 | 1040
39 | Cc1ccc(S(=O)(=O)NCCc2cn(CC(C)C)c3ncccc23)cc1 | 921
40 | CCOc1ccccc1NC(=O)c1cnn(-c2ccc(Br)cc2)c1 | 1120
41 | CC1SC(C)C(=O)N(CC(=O)NCc2ccco2)C1=O (stereo not given) | 685
42 | O=C(Nc1ccccc1C(F)(F)F)c1cnc(-c2ccccc2)nc1-c1ccncc1 | 915
43 | Cc1c(C(=O)NCCCn2ncccc2=O)nnn1-c1nccs1 | 630
44 | Brc1cccc(-c2nnc(Cc3nc(-c4ccncc4)no3)o2)c1 | 854
45 | Cc1cnc(C2CC2)n1CCNS(=O)(=O)c1ccccc1F | 587
46 | CCC(=O)Nc1ccc(CCc2nc3ccc(C(=O)NCCOC)cc3[nH]2)cc1 | 567
47 | O=C(Nc1cnc(N2CCCCC2)nc1)C1CCCC1 | 834
48 | O=C(CSc1ccc(F)cc1)Nc1nnc(COc2ccccc2)o1 | 790

Now from value to compound:

Row | RP-LC retention time [s] | SMILES
49 | 1300 | CCOc1nc2ccccc2nc1N1CCCC(C(=O)Nc2ccc(Cl)cc2C)C1 (stereo not given)
50 | 629 | CCN1CCN(c2cc(C(=O)O)c3cc(NS(=O)(=O)c4cc(C)c(C)cc4C)ccc3n2)CC1
51 | 588 | CC(=O)Nc1ccc(S(=O)(=O)N2CCC(CN3CCCCCC3)CC2)cc1
52 | 733 | CC1CCN(c2ccc(-c3noc(CCC(=O)N4CCN(C5CCCCC5)CC4)n3)cc2)CC1
53 | 541 | Cc1cccc2nnc(N3CCCN(C(=O)c4cccs4)CC3)n12
54 | 759 | O=C(Nc1nc2c(s1)CCCC2C(=O)N1CCOCC1)c1ccc(Cl)cc1 (stereo not given)
55 | 958 | CC1CCN(C(=O)CSc2nnc(-c3ccc(F)cc3)o2)CC1
56 | 671 | CC1CCN(c2ccc(NC(=O)CN3C(=O)CN(C)C(=O)c4ccccc43)cc2)CC1
57 | 819 | O=C(Cn1cnc(-c2nc(-c3ccccc3)cs2)c1)Nc1ccccc1
58 | 560 | O=C(CC1CCCC1)N1CCN(CCn2cccn2)CC1
59 | 605 | Cc1nc2cccnc2n1C1CCN(C(=O)Nc2ccccc2F)CC1
60 | 599 | Cc1ccc2c(Nc3ccc(C)c(F)c3)c(C(=O)N3CCOCC3)cnc2n1
61 | 820 | CCNC(=O)c1cc(-c2ccc(F)cc2)n(C)c1C
62 | 985 | CCOCCCNC(=O)N1CC(Oc2ccc(-c3nc(-c4ccccc4)no3)cc2)C1
63 | 686 | CS(=O)(=O)Nc1ccc(-c2noc(-c3cnccn3)n2)cc1
64 | 768 | COc1ccc(NC(=O)Cn2c(=O)nc(N3CCC(C)CC3)c3ccccc32)cc1OC
65 | 711 | O=C(NCc1ccco1)C1CCN(C(=O)c2ncn3c2COC(c2ccc(F)cc2)C3)CC1 (stereo not given)
66 | 654 | COc1ccc(OC)c(CNC(=O)CCC(=O)N2CCCn3nc(C)cc32)c1
67 | 849 | COc1ccc(OC)c(NC(=O)C2CC(=O)N(CCc3c[nH]c4ccc(Cl)cc34)C2)c1 (stereo not given)
68 | 752 | O=S(=O)(c1cccs1)N1CCCCC1c1nncn1CC1CC1 (stereo not given)
69 | 875 | COc1ccc(OC)c(CNC(=O)CCC2CCN(S(=O)(=O)c3ccccc3)CC2)c1

Row | RP-LC retention time [s] | SMILES
70 | 759 | Cc1cc(F)ccc1NC(=O)C1CCN(S(=O)(=O)c2cc(C(=O)N3CCOCC3)cs2)CC1
71 | 674 | O=C(NCC1CCN(C(=O)Nc2ccc(F)cc2)CC1)c1ccccn1
72 | 939 | Cc1cc(C)n(Cc2nc(-c3ccc(NC(=O)CC(C)(C)C)cc3)oc2C)n1
73 | 650 | CN(CCCNC(=O)C1CCN(c2nc3ccccc3n(C)c2=O)CC1)C1CCCCC1
74 | 805 | O=C(NCc1csc(-c2cccs2)n1)C1CCN(C(=O)CCc2ccccc2)CC1
75 | 649 | COc1ccc(Cl)cc1NC(=O)N1CCN(CCn2c(C(C)C)nc3cccnc32)CC1
76 | 801 | COc1ccc(Cl)c2c(=O)c3c([nH]c12)CCN(CC(=O)Nc1cccc(C#N)c1)C3
77 | 681 | O=C(CCc1cn(-c2ccccc2)nc1-c1ccc2c(c1)OCO2)NCCCN1CCOCC1
78 | 649 | Nc1cc(C2CCN(C(=O)Nc3ccccc3F)CC2)no1
79 | 798 | COc1cc(NC(=O)Cn2c(=O)nc(N3CCC(C)CC3)c3ccccc32)cc(OC)c1
80 | 865 | CCc1ccc(CNC(=O)CCc2nc(N3CCCC3)c3c(C)noc3n2)cc1
81 | 695 | O=C(COc1ccc(C2=NN(C(=O)c3cccs3)C(c3ccccc3)C2)cc1)NCCO (stereo not given)
82 | 760 | CCCn1ccc2sc(C)c(C(=O)N3CCCCC3)c2c1=O
83 | 801 | COCCCNC(=O)C1CCN(c2nc3ccc(-c4cccs4)nc3s2)CC1
84 | 688 | O=C(c1cc(-c2ccccn2)n[nH]1)N1CCCC(C(=O)N2CCc3ccccc3C2)C1 (stereo not given)
85 | 746 | O=C(C1CCCN(c2cnc3nccnc3c2)C1)N1CCN(c2ccc(F)cc2)CC1 (stereo not given)
86 | 695 | CS(=O)(=O)N1CCC(C(=O)NCCc2csc(-c3cccs3)n2)CC1
87 | 564 | CCN1CCN(CCNC(=O)Cn2c(=O)n(-c3ccccc3)c3ncccc32)CC1
88 | 935 | CCc1nc(-c2csc(S(=O)(=O)N3CCC(C(=O)NCc4ccc(F)cc4)CC3)c2)no1
89 | 599 | COc1ccc(-c2csc(CN3CCN(C(=O)C4CC4)CC3)n2)cc1
90 | 855 | O=C(NC1CCCC1)c1nnc(-c2ccc(S(=O)(=O)N3CCCC3)cc2)o1
